Where two headings read alike, the source gives them in different places.
Legend:
[1] = system: MCF7 cells (breast tumor cells) WT; test: Test B: cell proliferation/viability assay (CellTiter-Glo) on MCF7 WT; format: cell-based; details: Homo sapiens, MCF7, 168 h, 7 days of compound exposure
Outline: (§1)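 MCF7 WT / ER mutant lines (estradiol-independent, Tyr537Ser or Asp538Gly); stripped-serum, phenol red-free MEM; 9 pt 1:5 dil, 3-0.000001 μM final; 7 d; CellTiter-Glo RLU → % viability vs untreated, background-subtracted.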

[2] = target: His6-ERα298-554 Y537S mutant (ERα ligand-binding domain) (Homo sapiens (Human), UniProt P03372, Y537S); test: Test A: biochemical antagonist activity, LanthaScreen TR-FRET ERα coactivator assay, Y537S mutant; details: read-out: Antagonism Y537S IC50
His6-ERα298-554 Y537S mutant (ERα ligand-binding domain), sequence (P03372 298-554 Y537S): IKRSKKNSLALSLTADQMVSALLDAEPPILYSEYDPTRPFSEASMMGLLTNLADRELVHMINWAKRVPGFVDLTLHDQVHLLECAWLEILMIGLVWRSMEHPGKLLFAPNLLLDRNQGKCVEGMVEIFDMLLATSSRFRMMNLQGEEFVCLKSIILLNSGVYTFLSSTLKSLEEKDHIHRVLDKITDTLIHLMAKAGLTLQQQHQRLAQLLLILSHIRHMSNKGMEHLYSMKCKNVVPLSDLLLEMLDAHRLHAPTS
Outline: (§2)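 Compounds were added to receptor LBD (0.5 nM), terbium-labelled His6 antibody (0.5 nM), PGC1a coactivator peptide (250 nM) and estradiol at 3 nM or 10 nM. After incubating overnight at room temperature, the 520:495 nm ratio gave IC50 values by four-parameter logistic regression.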

[3] = target: ERα in MCF7 cells (Homo sapiens (Human), UniProt P03372); test: Test C: estrogen receptor degradation activity, ERα in cell western assay in MCF7 cells; format: cell-based; details: for DC50: 4 hours post compound addition, ERα in cell western, read-out: Degradation IC50; for % Degradation at 3 μM: 4 hours, relative to fulvestrant
ERα in MCF7 cells, sequence (P03372 whole entry): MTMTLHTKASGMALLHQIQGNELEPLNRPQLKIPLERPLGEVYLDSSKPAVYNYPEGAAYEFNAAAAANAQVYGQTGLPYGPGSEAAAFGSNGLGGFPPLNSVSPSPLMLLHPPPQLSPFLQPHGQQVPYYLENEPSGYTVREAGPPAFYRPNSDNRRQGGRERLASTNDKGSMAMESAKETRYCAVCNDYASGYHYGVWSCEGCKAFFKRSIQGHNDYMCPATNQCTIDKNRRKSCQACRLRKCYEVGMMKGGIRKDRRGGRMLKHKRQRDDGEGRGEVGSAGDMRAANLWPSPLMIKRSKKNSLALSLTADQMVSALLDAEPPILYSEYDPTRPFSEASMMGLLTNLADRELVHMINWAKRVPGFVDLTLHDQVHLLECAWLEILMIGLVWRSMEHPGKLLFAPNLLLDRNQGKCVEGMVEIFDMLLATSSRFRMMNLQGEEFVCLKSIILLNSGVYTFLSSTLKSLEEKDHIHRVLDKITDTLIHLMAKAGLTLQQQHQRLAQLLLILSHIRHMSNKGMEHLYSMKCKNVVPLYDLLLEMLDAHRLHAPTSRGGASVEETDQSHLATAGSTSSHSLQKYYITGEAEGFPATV
Outline: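 Cells seeded in stripped-serum medium are dosed the next day across a nine-concentration series (3 down to 0.000018 μM). Four hours later they are fixed, blocked, probed overnight with anti-ERα antibody, then labelled with an Alexa 488 secondary and a DNA dye before plate scanning.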

[4] = system: MCF7 cells expressing mutant estrogen receptor Tyr 537 Ser; test: Test B: cell proliferation/viability assay (CellTiter-Glo) on MCF7 Tyr 537 Ser mutant; format: cell-based; details: Homo sapiens, MCF7, 168 h, MCF7 cells expressing ER Tyr 537 Ser mutant, 7 days of compound exposure, read-out: proliferation MCF7 Y537S IC50
Outline: as §1

[5] = target: His6-ERα298-554 WT (ERα ligand-binding domain) (Homo sapiens (Human), UniProt P03372); test: Test A: biochemical antagonist activity, LanthaScreen TR-FRET ERα coactivator assay, WT; details: read-out: Antagonism WT IC50
His6-ERα298-554 WT (ERα ligand-binding domain), sequence (P03372 298-554): as the sequence (P03372 298-554 Y537S) above, with S240Y counted along it
Outline: as §2

[6] = target: His6-ERα298-554 D538G mutant (ERα ligand-binding domain) (Homo sapiens (Human), UniProt P03372, D538G); test: Test A: biochemical antagonist activity, LanthaScreen TR-FRET ERα coactivator assay, D538G mutant; details: read-out: Antagonism D538G IC50
His6-ERα298-554 D538G mutant (ERα ligand-binding domain), sequence (P03372 298-554 D538G): as the sequence (P03372 298-554 Y537S) above, with S240Y, D241G counted along it
Outline: as §2

[7] = system: MCF7 cells expressing mutant estrogen receptor Asp 538 Gly; test: Test B: cell proliferation/viability assay (CellTiter-Glo) on MCF7 Asp 538 Gly mutant; format: cell-based; details: Homo sapiens, MCF7, 168 h, MCF7 cells expressing ER Asp 538 Gly mutant, 7 days of compound exposure, read-out: proliferation MCF7 D538G IC50
Outline: as §1

[8] = asterisk (*): protocol using 10 nM estradiol

Oc1ccc2c(c1)SCC(c1ccc(SC(F)(F)F)cc1)=C2c1ccc(O[C@H]2CCN(CCCF)C2)cc1 [Example 66, 4-[4-[(3S)-1-(3-fluoropropyl)pyrrolidin-3-yl]oxyphenyl]-3-[4-(trifluoromethylsulfanyl)phenyl]-2H-thiochromen-7-ol]
IC50 [1]: 2 nM | IC50 ([2]; protocol with 3 nM estradiol): 362 nM | DC50 [3]: 0.2 nM | % Degradation at 3 μM [3]: 84% | IC50 [4]: 8 nM | IC50 ([5]; protocol with 3 nM estradiol): 59 nM | IC50 ([6]; protocol with 3 nM estradiol): 1800 nM | IC50 [7]: 2 nM

CCN(CC)c1ccc(C2=C(c3ccc(O[C@H]4CCN(CCCF)C4)cc3)c3ccc(O)cc3SC2)c(F)c1 [Example 74, 3-[4-(diethylamino)-2-fluoro-phenyl]-4-[4-[(3S)-1-(3-fluoropropyl)pyrrolidin-3-yl]oxyphenyl]-2H-thiochromen-7-ol]
IC50 [1]: 12 nM | IC50 [2, 8]: 2380 nM | DC50 [3]: 4 nM | % Degradation at 3 μM [3]: 83% | IC50 [4]: 173 nM | IC50 [5, 8]: 322 nM | IC50 [6, 8]: > 4000 nM | IC50 [7]: 16 nM

Oc1ccc2c(c1)SCC(c1ccc(OC(F)F)cc1F)=C2c1ccc(O[C@H]2CCN(CCCF)C2)cc1 [Example 35, 3-[4-(difluoromethoxy)-2-fluoro-phenyl]-4-[4-[(3S)-1-(3-fluoropropyl)pyrrolidin-3-yl]oxyphenyl]-2H-thiochromen-7-ol]
IC50 [1]: 0.2 nM | IC50 [2, 8]: 220 nM | DC50 [3]: 1 nM | % Degradation at 3 μM [3]: 89% | IC50 [4]: 2 nM | IC50 [5, 8]: 16 nM | IC50 [6, 8]: 421 nM | IC50 [7]: 0.3 nM

CCOc1ccc(C2=C(c3ccc(O[C@H]4CCN(CCCF)C4)cc3)c3ccc(O)cc3SCC2)c(F)c1 [Example 196, 4-(4-ethoxy-2-fluoro-phenyl)-5-[4-[(3S)-1-(3-fluoropropyl)pyrrolidin-3-yl]oxyphenyl]-2,3-dihydro-1-benzothiepin-8-ol]
IC50 [1]: 0.4 nM | IC50 [2, 8]: 36 nM | DC50 [3]: 0.3 nM | % Degradation at 3 μM [3]: 93% | IC50 [4]: 6 nM | IC50 [5, 8]: 3 nM | IC50 [6, 8]: 63 nM | IC50 [7]: 1 nM

Cc1ccc(C2=C(c3ccc(O[C@H]4CCN(CCCF)C4)cc3)c3cc(F)c(O)cc3OCC2)c(F)c1 [Example 138, 7-fluoro-4-(2-fluoro-4-methyl-phenyl)-5-[4-[(3S)-1-(3-fluoropropyl)pyrrolidin-3-yl]oxyphenyl]-2,3-dihydro-1-benzoxepin-8-ol]
IC50 [1]: 2 nM | IC50 ([2]; protocol with 3 nM estradiol): 253 nM | DC50 [3]: 0.5 nM | % Degradation at 3 μM [3]: 89% | IC50 [4]: 51 nM | IC50 ([5]; protocol with 3 nM estradiol): 18 nM | IC50 ([6]; protocol with 3 nM estradiol): 360 nM | IC50 [7]: 7 nM

C[C@H]1Cc2cc(C3=C(c4ccc(O[C@H]5CCN(CCCF)C5)cc4)c4ccc(O)cc4SCC3)ccc2O1 [Example 204, 5-[4-[(3S)-1-(3-fluoropropyl)pyrrolidin-3-yl]oxyphenyl]-4-[(2S)-2-methyl-2,3-dihydrobenzofuran-5-yl]-2,3-dihydro-1-benzothiepin-8-ol]
IC50 [1]: 0.4 nM | IC50 [2, 8]: 15 nM | DC50 [3]: 0.6 nM | % Degradation at 3 μM [3]: 88% | IC50 [4]: 5 nM | IC50 [5, 8]: 24 nM | IC50 [6, 8]: 24 nM | IC50 [7]: 0.8 nM

CCOc1cc(C2=C(c3ccc(O[C@H]4CCN(CCCF)C4)cc3)c3ccc(O)cc3SCC2)ccc1F [Example 195, 4-(3-ethoxy-4-fluoro-phenyl)-5-[4-[(3S)-1-(3-fluoropropyl)pyrrolidin-3-yl]oxyphenyl]-2,3-dihydro-1-benzothiepin-8-ol]
IC50 [1]: 0.3 nM | IC50 [2, 8]: 170 nM | DC50 [3]: 0.4 nM | % Degradation at 3 μM [3]: 97% | IC50 [4]: 3 nM | IC50 [5, 8]: 14 nM | IC50 [6, 8]: 335 nM | IC50 [7]: 0.7 nM

Nc1ccc(C2=C(c3ccc(O[C@H]4CCN(CCCF)C4)cc3)c3ccc(O)cc3SCC2)c(F)n1 [Example 223, 4-(6-amino-2-fluoro-3-pyridyl)-5-[4-[(3S)-1-(3-fluoropropyl)pyrrolidin-3-yl]oxyphenyl]-2,3-dihydro-1-benzothiepin-8-ol]
IC50 [1]: 1 nM | IC50 [2, 8]: 24 nM | DC50 [3]: 0.2 nM | % Degradation at 3 μM [3]: 85% | IC50 [4]: 0.1 nM | IC50 [5, 8]: 2 nM | IC50 [6, 8]: 42 nM | IC50 [7]: 0.2 nM

COc1ccc(C2=C(c3ccc(O[C@H]4CCN(CCCF)C4)cc3)c3ccc(O)cc3OCC2)c(C)c1 [Example 157, 5-[4-[(3S)-1-(3-fluoropropyl)pyrrolidin-3-yl]oxyphenyl]-4-(4-methoxy-2-methyl-phenyl)-2,3-dihydro-1-benzoxepin-8-ol]
IC50 [1]: 0.2 nM | IC50 [2, 8]: 36 nM | DC50 [3]: 0.2 nM | % Degradation at 3 μM [3]: 90% | IC50 [4]: 4 nM | IC50 [5, 8]: 2 nM | IC50 [6, 8]: 56 nM | IC50 [7]: 0.6 nM

Oc1ccc2c(c1)SCC(c1ccc(OC(F)(F)F)cc1)=C2c1ccc(O[C@H]2CCN(CCCF)C2)cc1 [Example 54, 4-[4-[(3S)-1-(3-fluoropropyl)pyrrolidin-3-yl]oxyphenyl]-3-[4-(trifluoromethoxy)phenyl]-2H-thiochromen-7-ol]
IC50 [1]: 3 nM | IC50 [2, 8]: 2640 nM | DC50 [3]: 1 nM | % Degradation at 3 μM [3]: 74% | IC50 [4]: 21 nM | IC50 [5, 8]: 246 nM | IC50 [6, 8]: 3030 nM | IC50 [7]: 3 nM

Oc1ccc2c(c1)SCC(c1ccc(O)nc1F)=C2c1ccc(O[C@H]2CCN(CCCF)C2)cc1 [Example 46, 6-fluoro-5-[4-[4-[(3S)-1-(3-fluoropropyl)pyrrolidin-3-yl]oxyphenyl]-7-hydroxy-2H-thiochromen-3-yl]pyridin-2-ol]
IC50 [1]: 0.1 nM | IC50 [2, 8]: 59 nM | DC50 [3]: 0.2 nM | % Degradation at 3 μM [3]: 83% | IC50 [4]: 2 nM | IC50 [5, 8]: 5 nM | IC50 [6, 8]: 101 nM | IC50 [7]: 0.5 nM

Oc1ccc2c(c1)C(c1ccc(N[C@H]3CCN(CCCF)C3)cc1)=C(c1ccc(F)cc1Cl)CC2 [Example 84, 7-(2-chloro-4-fluoro-phenyl)-8-[4-[[(3S)-1-(3-fluoropropyl)pyrrolidin-3-yl]amino]phenyl]-5,6-dihydronaphthalen-2-ol]
IC50 [1]: 0.4 nM | IC50 ([2]; protocol with 3 nM estradiol): 958 nM | DC50 [3]: 2 nM | % Degradation at 3 μM [3]: 78% | IC50 [4]: 6 nM | IC50 ([5]; protocol with 3 nM estradiol): 30 nM | IC50 ([6]; protocol with 3 nM estradiol): 1750 nM | IC50 [7]: 2 nM

Oc1cc2c(cc1Cl)C(c1ccc(O[C@H]3CCN(CCCF)C3)cc1)=C(c1ccc3[nH]ccc3c1)CCO2 [Example 144, 7-chloro-5-[4-[(3S)-1-(3-fluoropropyl)pyrrolidin-3-yl]oxyphenyl]-4-(1H-indol-5-yl)-2,3-dihydro-1-benzoxepin-8-ol]
IC50 [1]: 38 nM | IC50 ([2]; protocol with 3 nM estradiol): 4000 nM | DC50 [3]: 18 nM | % Degradation at 3 μM [3]: 75% | IC50 [4]: 653 nM | IC50 ([5]; protocol with 3 nM estradiol): 528 nM | IC50 ([6]; protocol with 3 nM estradiol): 4000 nM | IC50 [7]: 64 nM

CCOc1nccc(C2=C(c3ccc(O[C@H]4CCN(CCCF)C4)cc3)c3ccc(O)cc3SC2)c1Cl [Example 53, 3-(3-chloro-2-ethoxy-4-pyridyl)-4-[4-[(3S)-1-(3-fluoropropyl)pyrrolidin-3-yl]oxyphenyl]-2H-thiochromen-7-ol]
IC50 [1]: 0.2 nM | IC50 [2, 8]: 25 nM | DC50 [3]: 0.2 nM | % Degradation at 3 μM [3]: 84% | IC50 [4]: 5 nM | IC50 [5, 8]: 2 nM | IC50 [6, 8]: 36 nM | IC50 [7]: 0.2 nM

Oc1ccc2c(c1)SCC(c1ccc(OC(F)(F)F)cc1)=C2c1ccc(O[C@H]2CCN(CCCF)C2)nc1 [Example 80, 4-[6-[(3S)-1-(3-fluoropropyl)pyrrolidin-3-yl]oxy-3-pyridyl]-3-[4-(trifluoromethoxy)phenyl]-2H-thiochromen-7-ol]
IC50 [1]: 0.3 nM | IC50 [2, 8]: 154 nM | DC50 [3]: 0.2 nM | % Degradation at 3 μM [3]: 89% | IC50 [4]: 3 nM | IC50 [5, 8]: 12 nM | IC50 [6, 8]: 283 nM | IC50 [7]: 0.4 nM

Oc1cc2c(cc1F)C(c1ccc(O[C@H]3CCN(CCCF)C3)cc1)=C(c1ccc3occc3c1)CCO2 [Example 156, 4-(benzofuran-5-yl)-7-fluoro-5-[4-[(3S)-1-(3-fluoropropyl)pyrrolidin-3-yl]oxyphenyl]-2,3-dihydro-1-benzoxepin-8-ol]
IC50 [1]: 0.6 nM | IC50 [2, 8]: 254 nM | DC50 [3]: 0.4 nM | % Degradation at 3 μM [3]: 85% | IC50 [4]: 14 nM | IC50 [5, 8]: 19 nM | IC50 [6, 8]: 409 nM | IC50 [7]: 2 nM
